Measurements from patent US20120058989A1, “ANTIBACTERIAL FLUOROQUINOLONE ANALOGS” (Achaogen, Inc., priority 2008, published 2012).
≈ marks a conversion by molar mass, not a printed value.

Assays:
Test in all cases: MIC, CLSI broth microdilution
Format in all cases: cell-based
[1] = tested on: E. coli AECO001 (Fluoroquinolone susceptible, ATCC25922); settings: Table 2, 35° C., 20 hours
Outline: (§1)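 CLSI M7-A7 broth microdilution; 2-fold serial dilutions in Mueller Hinton Broth, 1:1 with inoculum; final 5×10^5 CFU/mL; 35° C., 20 h, ambient air. QC strains E. coli ATCC 25922, P. aeruginosa ATCC 27853, S. aureus ATCC 29213.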

[2] = tested on: S. pneumoniae ASPN001 (Fluoroquinolone-susceptible, ATCC49619); settings: for MIC ASPN 001: Table 2
Outline: as §1

[3] = tested on: S. pneumoniae ASPN1027 (Fluoroquinolone-resistant); settings: for MIC ASPN 1027: Table 2
Outline: as §1

[4] = tested on: S. aureus ASAU001 (Fluoroquinolone-susceptible, ATCC29213); settings: for MIC ASAU 001: Table 2
Outline: as §1

[5] = tested on: P. aeruginosa APAE001 (Fluoroquinolone-susceptible, ATCC27853); settings: for MIC APAE 001: Table 2
Outline: as §1

[6] = tested on: A. baumannii AABA1009 (Fluoroquinolone-resistant); settings: for MIC AABA 1009: Table 2
Outline: as §1

[7] = tested on: S. aureus ASAU1031 (Fluoroquinolone-resistant); settings: for MIC ASAU 1031: Table 2
Outline: as §1

[8] = tested on: E. coli AECO066 (Fluoroquinolone-resistant); settings: for MIC AECO 066: Table 2
Outline: as §1

[9] = tested on: P. aeruginosa APAE054 (Fluoroquinolone-resistant); settings: for MIC APAE 054: Table 2
Outline: as §1

[10] = tested on: A. baumannii AABA1065 (Fluoroquinolone-susceptible); settings: for MIC AABA 1065: Table 2
Outline: as §1

| Structure (SMILES) | MIC AECO 001 [1] | MIC ASPN 001 [2] | MIC ASPN 1027 [3] | MIC ASAU 001 [4] | MIC AABA 1009 [6] | MIC AECO 066 [8] | MIC APAE 054 [9] | MIC ([1]; Escherichia coli, read-out: MIC AECO 001) | MIC ([2]; Streptococcus pneumoniae, Table 2, read-out: MIC ASPN 001) | MIC ([3]; Streptococcus pneumoniae, Table 2, read-out: MIC ASPN 1027) | MIC ([4]; Staphylococcus aureus, Table 2, read-out: MIC ASAU 001) | MIC ([5]; Pseudomonas aeruginosa, Table 2, read-out: MIC APAE 001) | MIC ([6]; Acinetobacter baumannii, Table 2, read-out: MIC AABA 1009) | MIC ([7]; Staphylococcus aureus, Table 2, read-out: MIC ASAU 1031) | MIC ([8]; Escherichia coli, Table 2, read-out: MIC AECO 066) | MIC ([9]; Pseudomonas aeruginosa, Table 2, read-out: MIC APAE 054) | MIC ([10]; Acinetobacter baumannii, Table 2, read-out: MIC AABA 1065) | MIC APAE 001 [5] | MIC ASAU 1031 [7] | MIC AABA 1065 [10] |
| --- | --- | --- | --- | --- | --- | --- | --- | --- | --- | --- | --- | --- | --- | --- | --- | --- | --- | --- | --- | --- |
| CO/N=C1\CN(c2nc3c(cc2F)c(=O)c(C(=O)O)cn3C2CC2)CC1CN (stereo not drawn) [Gemifloxacin, reference compound] | – | – | – | – | – | – | – | ≤ 1 µg/mL | ≤ 1 µg/mL | 1 to 8 µg/mL (≈ 2.57 to 20.5 µM) | ≤ 1 µg/mL | ≤ 1 µg/mL | > 8 µg/mL | > 8 µg/mL | > 8 µg/mL | > 8 µg/mL | ≤ 1 µg/mL | – | – | – |
| NCC1CCN2c3c(F)cc4c(=O)c(C(=O)O)cn(C5CC5)c4c3CCCC12.O=C(O)C(F)(F)F (racemic) [24/rac-17, (7aS*,8S*)-8-(Aminomethyl)-4-cyclopropyl-12-fluoro-1-oxo-4,5,6,7,7a,8,9,10-octahydro-1H-pyrrolo[1′,2′:1,7]-azepino[2,3-h]quinoline-2-carboxylic acid trifluoroacetate] | A (MIC's of 1.0 μg/mL or less = A) | A (MIC's of 1.0 μg/mL or less = A) | B (MIC's of greater than 1.0 μg/mL to 8.0 μg/mL = B) | A (MIC's of 1.0 μg/mL or less = A) | C (MIC's of greater than 8.0 μg/mL = C) | C (MIC's of greater than 8.0 μg/mL = C) | C (MIC's of greater than 8.0 μg/mL = C) | – | – | – | – | – | – | – | – | – | – | B (MIC's of greater than 1.0 μg/mL to 8.0 μg/mL = B) | B (MIC's of greater than 1.0 μg/mL to 8.0 μg/mL = B) | A (MIC's of 1.0 μg/mL or less = A) |
| NC[C@@H]1CC2CC=Cc3c(c(F)cc4c(=O)c(C(=O)O)cn(C5CC5)c34)N2C1.O=C(O)C(F)(F)F (stereo partly drawn) [22/17, (9S)-9-(Aminomethyl)-4-cyclopropyl-12-fluoro-1-oxo-4,7,7a,8,9,10-hexahydro-1H-pyrrolo-[1′,2′:1,7]azepino[2,3-h]quinoline-2-carboxylic acid trifluoroacetate] | B (MIC's of greater than 1.0 μg/mL to 8.0 μg/mL = B) | B (MIC's of greater than 1.0 μg/mL to 8.0 μg/mL = B) | C (MIC's of greater than 8.0 μg/mL = C) | A (MIC's of 1.0 μg/mL or less = A) | C (MIC's of greater than 8.0 μg/mL = C) | C (MIC's of greater than 8.0 μg/mL = C) | C (MIC's of greater than 8.0 μg/mL = C) | – | – | – | – | – | – | – | – | – | – | B (MIC's of greater than 1.0 μg/mL to 8.0 μg/mL = B) | C (MIC's of greater than 8.0 μg/mL = C) | B (MIC's of greater than 1.0 μg/mL to 8.0 μg/mL = B) |
| N[C@H]1C[C@H]2CC=Cc3c(ccc4c(=O)c(C(=O)O)cn(C5CC5)c34)N2C1 [25/14, (7aR,9S)-9-amino-4-cyclopropyl-1-oxo-4,7,7a,8,9,10-hexahydro-1H-pyrrolo[1′,2′:1,7]azepino[2,3-h]quinoline-2-carboxylic Acid] | A (MIC's of 1.0 μg/mL or less = A) | A (MIC's of 1.0 μg/mL or less = A) | B (MIC's of greater than 1.0 μg/mL to 8.0 μg/mL = B) | A (MIC's of 1.0 μg/mL or less = A) | C (MIC's of greater than 8.0 μg/mL = C) | C (MIC's of greater than 8.0 μg/mL = C) | C (MIC's of greater than 8.0 μg/mL = C) | – | – | – | – | – | – | – | – | – | – | B (MIC's of greater than 1.0 μg/mL to 8.0 μg/mL = B) | C (MIC's of greater than 8.0 μg/mL = C) | A (MIC's of 1.0 μg/mL or less = A) |
| O=C(O)c1cn(C2CC2)c2c3c(c(F)cc2c1=O)N1CCCC1CC(=NO)C3 (stereo not drawn) [27/12, 4-Cyclopropyl-12-fluoro-6-(hydroxyimino)-1-oxo-4,5,6,7,7a,8,9,10-octahydro-1H-pyrrolo[1′,2′:1,7]azepino[2,3-h]quinoline-2-carboxylic acid] | B (MIC's of greater than 1.0 μg/mL to 8.0 μg/mL = B) | B (MIC's of greater than 1.0 μg/mL to 8.0 μg/mL = B) | C (MIC's of greater than 8.0 μg/mL = C) | A (MIC's of 1.0 μg/mL or less = A) | C (MIC's of greater than 8.0 μg/mL = C) | C (MIC's of greater than 8.0 μg/mL = C) | C (MIC's of greater than 8.0 μg/mL = C) | – | – | – | – | – | – | – | – | – | – | C (MIC's of greater than 8.0 μg/mL = C) | B (MIC's of greater than 1.0 μg/mL to 8.0 μg/mL = B) | B (MIC's of greater than 1.0 μg/mL to 8.0 μg/mL = B) |
| O=C(O)c1cn(C2CC2)c2c3c(c(F)cc2c1=O)N1CCCC1C(=O)NC3 (stereo not drawn) [10/6, 13-Cyclopropyl-8-fluoro-3,10-dioxo-2,3,3a,4,5,6,10,13-octahydro-1H-pyrrolo[2′,1′:3,4][1,4]diazepino[5,6-h]quinoline-1′-carboxylic acid] | A (MIC's of 1.0 μg/mL or less = A) | A (MIC's of 1.0 μg/mL or less = A) | B (MIC's of greater than 1.0 μg/mL to 8.0 μg/mL = B) | A (MIC's of 1.0 μg/mL or less = A) | C (MIC's of greater than 8.0 μg/mL = C) | C (MIC's of greater than 8.0 μg/mL = C) | C (MIC's of greater than 8.0 μg/mL = C) | – | – | – | – | – | – | – | – | – | – | B (MIC's of greater than 1.0 μg/mL to 8.0 μg/mL = B) | B (MIC's of greater than 1.0 μg/mL to 8.0 μg/mL = B) | B (MIC's of greater than 1.0 μg/mL to 8.0 μg/mL = B) |
| O=C(O)c1cn(C2CC2)c2c3c(c(F)cc2c1=O)N1CCCC1CC(O)C3O (stereo not drawn) [27/9, 4-Cyclopropyl-12-fluoro-5,6-dihydroxy-1-oxo-4,5,6,7,7a,8,9,10-octahydro-1H-pyrrolo[1′,2′:1,7]azepino[2,3-h]quinoline-2-carboxylic acid] | B (MIC's of greater than 1.0 μg/mL to 8.0 μg/mL = B) | C (MIC's of greater than 8.0 μg/mL = C) | C (MIC's of greater than 8.0 μg/mL = C) | B (MIC's of greater than 1.0 μg/mL to 8.0 μg/mL = B) | C (MIC's of greater than 8.0 μg/mL = C) | C (MIC's of greater than 8.0 μg/mL = C) | C (MIC's of greater than 8.0 μg/mL = C) | – | – | – | – | – | – | – | – | – | – | C (MIC's of greater than 8.0 μg/mL = C) | C (MIC's of greater than 8.0 μg/mL = C) | B (MIC's of greater than 1.0 μg/mL to 8.0 μg/mL = B) |

Continued, in another order:

| MIC AECO 001 [1] | MIC ASPN 001 [2] | MIC ASPN 1027 [3] | MIC ASAU 001 [4] | MIC AABA 1009 [6] | MIC AECO 066 [8] | MIC APAE 054 [9] | MIC ([1]; Escherichia coli, read-out: MIC AECO 001) | MIC ([2]; Streptococcus pneumoniae, Table 2, read-out: MIC ASPN 001) | MIC ([3]; Streptococcus pneumoniae, Table 2, read-out: MIC ASPN 1027) | MIC ([4]; Staphylococcus aureus, Table 2, read-out: MIC ASAU 001) | MIC ([5]; Pseudomonas aeruginosa, Table 2, read-out: MIC APAE 001) | MIC ([6]; Acinetobacter baumannii, Table 2, read-out: MIC AABA 1009) | MIC ([7]; Staphylococcus aureus, Table 2, read-out: MIC ASAU 1031) | MIC ([8]; Escherichia coli, Table 2, read-out: MIC AECO 066) | MIC ([9]; Pseudomonas aeruginosa, Table 2, read-out: MIC APAE 054) | MIC ([10]; Acinetobacter baumannii, Table 2, read-out: MIC AABA 1065) | Structure (SMILES) | MIC APAE 001 [5] | MIC ASAU 1031 [7] | MIC AABA 1065 [10] |
| --- | --- | --- | --- | --- | --- | --- | --- | --- | --- | --- | --- | --- | --- | --- | --- | --- | --- | --- | --- | --- |
| A (MIC's of 1.0 μg/mL or less = A) | A (MIC's of 1.0 μg/mL or less = A) | C (MIC's of greater than 8.0 μg/mL = C) | A (MIC's of 1.0 μg/mL or less = A) | C (MIC's of greater than 8.0 μg/mL = C) | C (MIC's of greater than 8.0 μg/mL = C) | C (MIC's of greater than 8.0 μg/mL = C) | – | – | – | – | – | – | – | – | – | – | NC[C@H]1C[C@@H]2CCCc3c(c(F)cc4c(=O)c(C(=O)O)cn(C5CC5)c34)N2C1.O=C(O)C(F)(F)F [20/16, (7aS,9R)-9-(Aminomethyl)-4-cyclopropyl-12-fluoro-1-oxo-4,5,6,7,7a,8,9,10-octahydro-1H-pyrrolo[1′,2′:1,7]-azepino[2,3-h]quinoline-2-carboxylic acid trifluoroacetate] | B (MIC's of greater than 1.0 μg/mL to 8.0 μg/mL = B) | C (MIC's of greater than 8.0 μg/mL = C) | A (MIC's of 1.0 μg/mL or less = A) |
| A (MIC's of 1.0 μg/mL or less = A) | A (MIC's of 1.0 μg/mL or less = A) | C (MIC's of greater than 8.0 μg/mL = C) | A (MIC's of 1.0 μg/mL or less = A) | C (MIC's of greater than 8.0 μg/mL = C) | C (MIC's of greater than 8.0 μg/mL = C) | C (MIC's of greater than 8.0 μg/mL = C) | – | – | – | – | – | – | – | – | – | – | CCNC1CC2CCCc3c(c(F)cc4c(=O)c(C(=O)O)cn(C5CC5)c34)N2C1.O=C(O)C(F)(F)F (mixture of isomers) [7B/20, (9S)-4-cyclopropyl-9-(ethylamino)-12-fluoro-1-oxo-4,5,6,7,7a,8,9,10-octahydro-1H-pyrrolo[1′,2′:1,7]-azepino[2,3-h]quinoline-2-carboxylic acid trifluoroacetate] | B (MIC's of greater than 1.0 μg/mL to 8.0 μg/mL = B) | B (MIC's of greater than 1.0 μg/mL to 8.0 μg/mL = B) | A (MIC's of 1.0 μg/mL or less = A) |
